Columns and labels:
[1] = tested on: HUVEC
Description: (§1) Human Umbilical Vein Endothelial Cells (HUVEC), complete endothelial growth medium-2 (EGM-2) and bullet kit were purchased from Lonza (Walkersville, Md.). Cells were grown and maintained in a humidified 37° C. and 5% CO2 atmosphere. Cells were expanded on T75 cm^2 polystyrene flasks to passage 5 and plated onto 6-well plates for experimental assays (Fischer Scientific, Pittsburgh, Pa.). MCEC, a normal mouse cardiac endothelial cell line from Cedarlane (Ontario, Canada), were cultured in Dulbecco's Modified Eagle Medium (DMEM) (Life Technologies, CA) supplemented with 10% fetal bovine serum (FBS) in a 37° C. incubator with humidified room air and 5% CO2.
(§2) M-Per lysis of Ecs was used as an assay control.

[2] = tested on: MCEC
Description: as §1, §2

[3] = tested on: aortic allograft; test: Aortic allograft model of chronic allograft rejection (Balb/c to C57Bl/6); assay type: in vivo, mouse; details: 100 or 1000 ng/ml tested; quantified intimal thickening
Description: Male Balb/c (H-2^d) and C57BL/6 (B6;H-2^b) mice (8-10 weeks) were obtained from Jackson laboratory (Bar Harbor, Me.). All mice weighed 25-30 g and were housed under specific pathogen-free conditions at the Medical University of South Carolina (Charleston, S.C.) and were used for transplantation studies. In the following series, transplants to male B6 mice were performed under clean conditions using Balb/c donors in the allograft group (Balb/c to B6, n=20) and B6 donors in the isograft group (B6 to B6, n=10). The mice were anesthetized with intraperitoneal injections of ketamine (75 mg/kg, Lloyd Laboratories, Shenandoah, Iowa, USA) and xylazine (16 mg/kg, Vedco, Inc., St. Joseph, Mo., USA) diluted in sterile normal saline. An operating microscope with 16×magnification was used for the surgical procedure. The cuff used for the anastamosis consisted of a 0.6 mm body and a 0.6 mm extension crafted from a 24 gauge polyimide catheter (inner diameter 0.5 mm, wall thickness 0.025 mm, cat. No. 141-0027, Vention Medical, NH, USA).
After satisfactory anesthetic was administered, the donor mouse was placed in supine position and a midline thoraco-abdominal incision was made. […] For orthotopic transplantation, the bowel was reflected cephalad, the colon was retracted to the animal's left side, and the seminal vesicles and testes were distracted caudally. […]

[4] = target: integrin αVβ3 on human umbilical vein endothelial cells (HUVEC) (human) (UniProt P06756); test: cell-based or functional assay
Sequence of integrin αVβ3 on human umbilical vein endothelial cells (HUVEC) (human) (P06756 31-1048, chain 1 of 2): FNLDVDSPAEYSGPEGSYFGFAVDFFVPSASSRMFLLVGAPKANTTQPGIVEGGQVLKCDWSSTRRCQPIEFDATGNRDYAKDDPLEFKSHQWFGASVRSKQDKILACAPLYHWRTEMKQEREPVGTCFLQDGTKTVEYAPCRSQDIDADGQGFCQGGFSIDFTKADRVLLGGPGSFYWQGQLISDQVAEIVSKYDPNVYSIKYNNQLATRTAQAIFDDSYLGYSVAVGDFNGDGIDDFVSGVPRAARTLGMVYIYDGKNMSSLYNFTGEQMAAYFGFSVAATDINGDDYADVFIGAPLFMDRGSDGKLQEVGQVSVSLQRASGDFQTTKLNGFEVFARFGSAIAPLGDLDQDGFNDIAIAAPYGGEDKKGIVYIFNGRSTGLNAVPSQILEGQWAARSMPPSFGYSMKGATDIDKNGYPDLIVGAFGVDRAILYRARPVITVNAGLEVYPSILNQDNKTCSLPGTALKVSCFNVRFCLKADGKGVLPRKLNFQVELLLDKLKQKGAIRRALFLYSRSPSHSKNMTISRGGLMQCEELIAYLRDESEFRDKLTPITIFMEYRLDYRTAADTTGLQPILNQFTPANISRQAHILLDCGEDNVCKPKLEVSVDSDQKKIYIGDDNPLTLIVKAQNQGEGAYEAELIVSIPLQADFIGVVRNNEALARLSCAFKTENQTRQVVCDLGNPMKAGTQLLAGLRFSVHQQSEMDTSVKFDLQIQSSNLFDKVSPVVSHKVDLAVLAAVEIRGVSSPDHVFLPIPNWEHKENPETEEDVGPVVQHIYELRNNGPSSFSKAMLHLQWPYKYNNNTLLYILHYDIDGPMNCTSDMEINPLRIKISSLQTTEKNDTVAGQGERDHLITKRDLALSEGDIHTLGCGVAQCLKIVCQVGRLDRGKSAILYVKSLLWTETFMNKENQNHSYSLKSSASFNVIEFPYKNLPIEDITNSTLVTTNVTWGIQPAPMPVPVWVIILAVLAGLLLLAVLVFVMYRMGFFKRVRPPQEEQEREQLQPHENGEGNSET
Sequence of integrin αVβ3 on human umbilical vein endothelial cells (HUVEC) (human) (P05106 27-788, chain 2 of 2, further chain): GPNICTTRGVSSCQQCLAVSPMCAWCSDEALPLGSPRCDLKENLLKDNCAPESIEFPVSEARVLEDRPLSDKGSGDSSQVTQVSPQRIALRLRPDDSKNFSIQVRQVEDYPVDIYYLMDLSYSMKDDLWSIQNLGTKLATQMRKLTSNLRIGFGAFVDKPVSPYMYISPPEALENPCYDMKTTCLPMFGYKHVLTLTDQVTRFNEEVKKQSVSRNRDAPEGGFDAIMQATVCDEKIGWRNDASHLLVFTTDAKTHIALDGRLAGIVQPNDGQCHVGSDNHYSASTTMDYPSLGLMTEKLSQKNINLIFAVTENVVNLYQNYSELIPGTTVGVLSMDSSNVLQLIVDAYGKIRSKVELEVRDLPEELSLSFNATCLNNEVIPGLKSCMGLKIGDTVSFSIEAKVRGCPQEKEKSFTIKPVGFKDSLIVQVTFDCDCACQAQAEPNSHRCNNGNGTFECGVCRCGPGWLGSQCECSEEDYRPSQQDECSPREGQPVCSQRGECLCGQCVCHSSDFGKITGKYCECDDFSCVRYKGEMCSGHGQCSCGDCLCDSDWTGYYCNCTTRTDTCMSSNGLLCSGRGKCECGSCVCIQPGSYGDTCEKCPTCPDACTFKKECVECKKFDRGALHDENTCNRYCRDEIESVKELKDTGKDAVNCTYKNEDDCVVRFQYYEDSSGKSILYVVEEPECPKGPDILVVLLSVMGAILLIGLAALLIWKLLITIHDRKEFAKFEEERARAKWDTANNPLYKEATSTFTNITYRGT

Compound	cell toxicity and death (MTS cell viability) [1]	concentration that did induce toxicity ([1]; human, 6 h)	cell toxicity and death (MTS cell viability) [2]	concentration that did induce toxicity ([2]; mouse, 6 h)	dose in Belzer UW solution that provided protection [3]	increase of fluorescence in HUVEC over a 6 hours period, without brefeldin A (-BA) [4]	micelle internalization into HUVEC (confocal microscopy, Dylight 680 fluorescence) compared to untargeted RaM [4]
CO[C@H]1C[C@@H]2CC[C@@H](C)[C@@](O)(O2)C(=O)C(=O)N2CCCC[C@H]2C(=O)O[C@H]([C@H](C)C[C@@H]2CC[C@@H](O)[C@H](OC)C2)CC(=O)[C@H](C)/C=C(\C)[C@@H](O)[C@@H](OC)C(=O)[C@H](C)C[C@H](C)/C=C/C=C/C=C/1C [free rapamycin, rapamycin]	do not result in significant cell toxicity and death	3000 ng/mL	do not result in significant cell toxicity and death	3000 ng/mL	1000 ng/mL		
Targeted Rapamycin Micelles (TRaM): rapamycin micelles bearing the cyclic peptide arginine-glycine-aspartate (cRGD) on the surface, labeled with Dylight 680						88%	> 50%
